Literature values, collected in patent US20150125548A1, “COMBINATION NUTRITIONAL AND NUTRACEUTICAL PRODUCTS” (Requis Pharmaceuticals Inc., priority 2011, published 2015).

How the values were obtained:
[1] = after absorption
tryptophan hydroxylase = tryptophan hydroxylase (Mus musculus, UniProt Q8CGV2); conditions: 10 mM magnesium chloride added together with 1 mM ATP; 100,000 g supernatant from mouse midbrain
Sequence of tryptophan hydroxylase (Q8CGV2 whole entry): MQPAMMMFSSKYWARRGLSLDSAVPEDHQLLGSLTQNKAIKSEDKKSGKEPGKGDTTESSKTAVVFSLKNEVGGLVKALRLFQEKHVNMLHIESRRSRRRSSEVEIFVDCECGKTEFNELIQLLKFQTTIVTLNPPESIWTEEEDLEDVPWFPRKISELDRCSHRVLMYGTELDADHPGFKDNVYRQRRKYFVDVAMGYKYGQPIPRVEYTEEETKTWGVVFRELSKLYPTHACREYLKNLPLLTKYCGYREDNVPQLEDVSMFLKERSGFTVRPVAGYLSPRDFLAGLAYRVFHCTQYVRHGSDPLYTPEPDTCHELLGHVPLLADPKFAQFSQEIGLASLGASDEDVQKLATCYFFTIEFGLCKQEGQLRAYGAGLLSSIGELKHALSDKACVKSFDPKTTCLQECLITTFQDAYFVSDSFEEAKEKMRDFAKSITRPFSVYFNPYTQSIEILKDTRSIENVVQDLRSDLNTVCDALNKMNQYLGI

Row | fraction present in blood as the free amino acid (rest bound to plasma proteins) [1] | SMILES | increase of enzyme activity above control (tryptophan hydroxylase)
1 | around 20% | N[C@@H](Cc1c[nH]c2ccccc12)C(=O)O [tryptophan, (2S)-2-amino-3-(1H-indol-3-yl)propanoic acid] | 
2 |  | [Cl-].[Cl-].[Mg+2] [magnesium chloride] | 50-70%
